In article PMC12534982 (Journal of Experimental & Clinical Cancer Research : CR, 2025):

How the values were obtained:
DHODH = test system: DHODH; parameters: method as in PMID 35184687; conditions: 100 µM; same experimental setup; cited from earlier work
human DHODH = conditions: cited from earlier work
colorectal cancer cells [1] = assay: Flow cytometry-based cell cycle analysis; parameters: species or system human; conditions: washout 12 h; NK-A 17E-233I 25 µM, HU 1 mM
Description: Cancer cells (3 × 10^4) were cultured in 48-well plates and treated with DMSO or NK-A 17E-233I (25 µM) for 24 h. Following treatment, all wells were washed with PBS (#P4417; Sigma-Aldrich), and the cells were collected in Eppendorf tubes. The cells were harvested using 0.25% trypsin (#25200056; ThermoScientific) and 0.02% EDTA (1:1) (#17892; ThermoFisher Scientific) for 2 min, followed by the addition of DMEM. The tubes were then centrifuged at 500 × g for 5 min. The supernatant was discarded, and the pellets were fixed in 70% cold ethanol and stored at -20 °C for at least 1 h. The pellets were resuspended in 1 mL PBS and centrifuged at 500 × g at 4 °C for 5 min. The supernatant was discarded once again, and the pellets were subsequently reconstituted in a solution containing propidium iodide (PI; #25,535–16-4, Merck) and RNase (#N8080119, Applied Biosystems), followed by storage at 4 °C overnight. Cell cycle analysis was conducted using a CytoFLEX flow cytometer (Beckman Coulter; 405 nm laser). Cells were gated based on size and granularity on a forward scatter (FSC)/side scatter (SSC) plot, with cell debris excluded from the analysis. Mean fluorescence intensity from 1 × 10^4 cells was recorded. Data analysis was conducted using FlowJo software v10.8.1 (BD Life Sciences).

Δ29 DHODH (N-truncated) = molecular target: T1, Δ29 DHODH (N-truncated) (Homo sapiens, UniProt Q02127); assay: In vitro DHODH enzyme activity assay; assay type: biochemical; conditions: 1 mM DHO; ± SD
T1 construct: N-terminal truncated form of human DHODH (Δ29), where the N-terminal transmembrane domain was removed; made in house
T1 sequence (Q02127 29-395, stated change not applied): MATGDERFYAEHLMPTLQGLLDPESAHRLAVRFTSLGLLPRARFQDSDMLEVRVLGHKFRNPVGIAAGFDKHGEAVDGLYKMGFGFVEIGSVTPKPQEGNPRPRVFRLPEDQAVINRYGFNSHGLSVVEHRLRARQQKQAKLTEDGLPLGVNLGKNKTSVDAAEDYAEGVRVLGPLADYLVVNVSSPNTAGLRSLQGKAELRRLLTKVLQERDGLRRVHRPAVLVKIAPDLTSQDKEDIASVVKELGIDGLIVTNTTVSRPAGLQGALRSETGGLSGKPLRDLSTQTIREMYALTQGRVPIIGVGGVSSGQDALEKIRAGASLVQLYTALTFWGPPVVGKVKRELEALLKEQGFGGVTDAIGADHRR
Description: The assays to determine the inhibition constants of inhibitors of the recombinant DHODH enzymes are described in [28, 29].
The IC50 values were determined by fitting the equation V = V max/(1 + (I/IC50)^h) to the assay data using SigmaPlot14 (Systat Software Inc.). In this equation, V represents the measured enzyme activity, while V max indicates the maximum enzyme activity reached. I denotes the inhibitor concentration, and h describes the slope of the fitted curve.

colorectal cancer cells [2] = assay: Western blot; assay type: cell-based, human; conditions: NK-A 17E-233I 25 µM; Brequinar
Description: Cancer cells (2.2 × 10^6) were cultured in 100-mm Petri dishes and treated with DMSO or NK-A 17E-233I (25 µM) for 48 h. Cells were harvested by scrapping into 2 × Laemmli buffer (4% SDS, 20% glycerol, 125 mM Tris–HCl, pH 6.8) and heated at 100 °C for 5 min. A 4 × Laemmli sample buffer containing β-mercaptoethanol was added to the cell lysates. The proteins were separated using sodium dodecyl sulfate polyacrylamide gel electrophoresis (SDS-PAGE) and subsequently transferred to polyvinylidene fluoride (PVDF) membranes (#88518; Thermo Fisher Scientific) following the manufacturer’s protocols. The membranes were blocked at room temperature for 1 h with 5% dried skimmed milk in Tris-buffered saline with Tween-20 (TBS-T) (20 mM Tris–HCl, pH 7.5, 150 mM NaCl, 0.1% Tween-20), and the blots were incubated with the corresponding antibodies at a dilution of 1:1000–1:3000 in a blocking buffer at 4 °C overnight.
Primary antibodies utilized in this study included: anti-human DHODH (#SC-166348; Santa Cruz), anti–CHK1-pS345 (#2348; Cell Signaling), anti-POLD2 (#29765–1-AP; Proteintech), anti-POLD1 (#15646–1-AP; Proteintech), anti-p53 (#SC-126; Santa Cruz), anti-KRAS, clone 4F3 (#SAB1404011; Sigma-Aldrich), anti-GAPDH (#ab9489; Abcam), anti–α-tubulin (#T9026; Sigma-Aldrich), anti-BAX (#SC-23959; Santa Cruz), anti-cytochrome c (#66264–1-IG; Proteintech), anti-DR5 (#3696; Cell Signaling, dilution 1:500), anti–caspase-8 (#SC-56070; Santa Cruz), and anti–caspase-3 (#9662; Cell Signaling, dilution 1:500). The membranes were incubated at room temperature for 1 h with secondary antibodies (diluted 1:3000–5000), either anti-rabbit (#A0545; Sigma-Aldrich) or anti-mouse IgG-horseradish peroxidase-conjugated (#A9044; Sigma-Aldrich), in TBS-T. The images were analyzed and quantified using ImageStudio software (LI-COR) or ImageQuant 10.2 TL analysis software (Cytiva Life Sciences).

SW620 cells [3] = assay: Mitochondrial respiration (OCR) in intact cells; assay type: cell-based, human; conditions: 24 h
Description: Oxygen consumption rate (OCR) was measured using a high-resolution respirometer (Oxygraph-2k, Oroboros Instruments, Innsbruck, Austria). SW620 cells (2.2 × 10^6) were cultured in 100-mm Petri dishes and treated with DMSO or NK-A 17E-233I (25 µM) for 24 h. Cells were harvested at 80% confluency using 0.25% trypsin/EDTA and resuspended in complete DMEM at a concentration of 5 × 10^5 cells/mL. The cells were subsequently analyzed in two 2 mL Oxygraph chambers. Real-time measurements of OCR were conducted at 37 °C under basal conditions and following the sequential addition of inhibitors targeting various mitochondrial respiratory complexes: oligomycin (2.5 μM) to inhibit complex V (to assess ATP-linked respiration and leak rate), carbonyl cyanide-p-trifluoromethoxyphenylhydrazone (FCCP) with stepwise titration in 0.5 μM increments (to evaluate maximal electron transport system respiratory capacity and reserve capacity), and rotenone (0.5 μM) and antimycin A (2.5 μM) to inhibit complex I and complex III, respectively (to measure non-mitochondrial oxygen consumption). The values of OCR were normalized to mitochondrial DNA copy number, which was quantified by qPCR using the primers referenced above. Data analysis was performed using DatLab7 (Oroboros, Austria) software.

SW620 cells [4] = assay: Complex I- and complex II-dependent respiration (permeabilized cells); assay type: cell-based, human; conditions: 100 µM, 24 h
Description: Following treatment, cells were detached using trypsin–EDTA, washed with PBS, and resuspended in MiR05 media (composed of 110 mM sucrose, 60 mM potassium-lactobionate, 0.5 mM EGTA, 3 mM MgCl2·6H2O, 20 mM taurine, 10 mM KH2PO4, 20 mM HEPES adjusted to pH 7.1 with KOH at 37 °C, and 1 g/L BSA) at a concentration of 5 × 10^5 cells/mL. The cells were then transferred into 2 mL Oxygraph chambers for real-time measurement of OCR. Initial permeabilization was achieved using 7 μg of digitonin, followed by the sequential addition of substrates and inhibitors: 5 mM ADP, 2 mM malate, 10 μM cytochrome c, 5 mM pyruvate, 10 mM glutamate, 10 mM succinate, 0.5 μM rotenone, and 2.5 μM antimycin A. Mitochondrial membrane integrity was confirmed through the addition of cytochrome c (10 μM), with observed changes in OCR remaining below 10%. Complex I-mediated respiration was evaluated following the addition of complex I substrates (malate/pyruvate/glutamate), while complex II-mediated respiration was assessed in the presence of the complex II substrate (succinate) and the complex I inhibitor (rotenone). Residual oxygen consumption after the addition of antimycin A was subtracted from all the results to yield mitochondria-specific rates. […] Oxygen consumption rates were expressed as picomoles (pmol) per second per million cells (Mill) and normalized to the mitochondrial copy number in each sample.

SW620 cells [5] = assay: DHODH-dependent respiration (permeabilized cells); assay type: cell-based, human; conditions: 24 h; NK-A 17E-233I 25 µM, Brequinar 100 µM; excess exogenous DHO
Description: Cells were resuspended in MiR05 medium and transferred into the chambers of the Oxygraph-2k instruments. The OCR in digitonin-permeabilized cells was monitored in the presence of the complex I inhibitor (0.5 μM rotenone), 1 mM DHO, 3 mM ADP, 10 μM cytochrome c, and 30 μM Leflunomide. DHODH-mediated respiration was calculated by subtracting the residual respiration rate after the addition of 30 μM Leflunomide from the respiration rate measured in the presence of 0.5 μM rotenone, 1 mM DHO, 3 mM ADP, and 10 μM cytochrome c.

SW620 cells [6] = conditions: 96 h

O=C1CC(C(=O)O)NC(=O)N1 (stereo not drawn) [DHO, dihydroorotate]
ΔTm (DHODH): 3.5 °C

O=C(O)c1cc(=O)[nH]c(=O)[nH]1 [orotate]
Ki (human DHODH; competitive inhibitor concerning DHO): 11 µM

O=C1C(O)=C([C@H]2CC[C@H](c3ccc(Cl)cc3)CC2)C(=O)c2ccccc21 [Atovaquone]
mode of inhibition with respect to DHO (human DHODH): uncompetitive inhibitors

C/C(O)=C(\C#N)C(=O)Nc1ccc(C(F)(F)F)cc1 [Teriflunomide]
mode of inhibition with respect to DHO (human DHODH): uncompetitive inhibitors

NC(=O)NO [HU, hydroxyurea, reference compound]
cell cycle after washout (colorectal cancer cells [1]): resumed proliferation

Cc1c(-c2ccc(-c3ccccc3F)cc2)nc2ccc(F)cc2c1C(=O)O [Brequinar, reference compound]
average of the fitted slopes (Δ29 DHODH (N-truncated)): 1.1 ± 0.2 | levels of p53-mutant protein (colorectal cancer cells [2]): did not have an observed effect | parameters of mitochondrial respiration in intact cells (SW620 cells [3]; 100 µM): decreased most of these respiration parameters | basal and ATP-linked respiration in intact cells (SW620 cells [3]; NK-A 17E-233I 25 µM, Brequinar 100 µM): significantly decreased | complex II-mediated respiration (SW620 cells [4]): stimulated | DHODH-mediated oxygen consumption rate (SW620 cells [5]): reduced | IC50 (SW620 cells [6]): 100 µM
